For data set [1] the following is noted: plasma of rabbits, direct intravenous injection; ref Cui et al., 2016; cited from earlier work.
The subject of data set [2] is Min6 cells and whole mouse pancreatic islets. As to conditions: ref Vangoitsenhoven et al., 2014; cited from earlier work. Here is the method:
Low concentrations of cereulide can cause dysfunction in beta-cell lines ([Vangoitsenhoven et al., 2014]) and have been reported to be detrimental toward isolated porcine pancreatic Langerhans islets ([Virtanen et al., 2008]). Using Min6 cells and whole mouse pancreatic islets as model, it could be shown that low concentrations of cereulide (0.25–0.5 ng/mL) are directly effecting the insulin secretory machinery ([Vangoitsenhoven et al., 2014]). Based on their in vitro findings the authors hypothesized that cereulide may contribute to the rise of prevalence of diabetes observed worldwide, as a ...

In data set [3] the test system is Peripheral blood mononuclear cells (PBMC). The data set can be described thus: Flow cytometric analysis of PBMC populations. The class given is in vivo, pig. How it is done:
Peripheral blood mononuclear cells (PBMC) were isolated from heparin-stabilized blood samples (5–8 mL) using Ficoll-Hypaque (PAA, Austria) density centrifugation as described elsewhere ([Saalmüller et al., 1987]). For flow cytometric (FCM) analysis PMBCs were labeled with monoclonal antibodies as indicated in Supplementary Table S1 and stained with the respective isotype-specific conjugates. For analysis of regulatory T cells, cells were fixed and permeabilized by using Foxp3 Staining Buffer Set (eBioscience) in accordance with the manufacturer‘s instructions or for B cells by a FormSap-F&P permeabilization and fixation protocol as described previously ([Gerner et al., 2008]; [Käser et al., 2008]). Samples were analyzed immediately after the final washing steps. Flow cytometric analyses were performed on a FACSCantoII (BD Bioscience). 50,000 events were collected for each sample. Data were analyzed using FACSDiva software 6.1.3 (BD Bioscience) and FlowJo software 7.6.
Neg a tiv e c ontr ol - - - - Isoty p co ntr ol Ig G2b 1 Anti-Ig G2b-Alexa488 2 - - Isoty pe cont rol Isoty p co ntr ol Ig G 1 Anti-Ig G1-RPE 3 […]
T he lp er ce lls Anti-CD4 (74-12-4; IgG2b) 4 Anti-Ig G2b-Alexa488 2 - - NK ce lls Anti-CD3 (PPT3; IgG1) 5 Anti-Ig G1-RPE 3 […]
Background: In flow cytometry, cells or beads pass a laser one at a time.

For data set [4] the following is noted: ref Ehling-Schulz et al., 2004, Rajkovic et al., 2008, cited from earlier work. From the text: The reported incidence of foodborne outbreaks caused by Bacillus toxins is steadily increasing worldwide throughout the last decade. For instance, in the European Union about 600–700 confirmed cases of foodborne outbreaks linked to B. cereus toxins are annually reported ([Messelhäußer and Ehling-Schulz, 2018]). Due to the rise of reports on severe intoxications, the Bacillus cereus toxin cereulide is of special concern. Cereulide is a small dodecadepsipeptide toxin that evokes emesis a short time after ingestion of contaminated food ([Agata et al., 1995]). Usally the disease is self limiting b ...

The values below come from article PMC6234764, “First Insights Into Within Host Translocation of the Bacillus cereus Toxin Cereulide Using a Porcine Model” (Frontiers in Microbiology, 2018).

Turning to `CC(C)C[C@H]1OC(=O)[C@H](C(C)C)NC(=O)[C@H](C(C)C)OC(=O)[C@@H](C)NC(=O)[C@@H](CC(C)C)OC(=O)[C@H](C(C)C)NC(=O)[C@H](C(C)C)OC(=O)[C@@H](C)NC(=O)[C@@H](CC(C)C)OC(=O)[C@H](C(C)C)NC(=O)[C@H](C(C)C)OC(=O)[C@@H](C)NC1=O` [cereulide], in data set [1], the Elimination half-life is on record as 10.8 ± 9.1 h. Also, the “Low concentrations directly effecting the insulin secretory machinery” value in data set [2] is 0.25 to 0.5 ng/mL. The “Cell composition of PBMCs in comparison to control pigs” value in data set [3] (after oral administration of cereulide) is listed as “no significant changes”. Also, the “Proportions of blood cell populations” value in data set [3] (daily oral dose 10 μg kg^-1 over 7 days) is “remained stable”. Besides, the “Stability to enzymatic cleavage” value in data set [4] (gastro-intestinal passage) was “resistance to enzymatic cleavage”. In data set [4], the “Temperature and pH stability” value was “high temperature and pH stability”.
